Values quoted from earlier work as cited in patent publication EP2899264B1, “EMULSION FOR MICROBIAL GROWTH, METHOD FOR GROWING MICROORGANISMS BY USING SAID EMULSION, AND METHOD FOR PRODUCING MICROBIAL METABOLITE” (Kaneka Corporation, priority 2012, dated 2014).

Experiments:
microorganisms = details: used as emulsifier
[1] = for concentration at which the acid aggregates: in water
[2] = system: Ralstonia eutropha (currently classified as Cupriavidus necator); details: sole carbon source
Aeromonas hydrophila = details: sole carbon source

## CCCCCCCCCCCCOS(=O)(=O)[O-].[Na+] [SDS]
microorganisms
  effect on growth of microorganisms: inhibit growth of microorganisms

## Triton X-100
microorganisms
  effect on growth of microorganisms: inhibit growth of microorganisms

## CCCCCCCCCCCCCCCC(=O)O [palmitic acid]
[1]
  concentration at which the acid aggregates: ≤ 1000 nM

## CCCCCCCCCCCCCCCCCC(=O)O [stearic acid]
[1]
  concentration at which the acid aggregates: ≤ 1000 nM

## CCCCCCCCCCCC(=O)O [lauric acid]
[2]
  PHA productivity: ≤ 1 g/L
[1]
  water solubility: ≤ 100 µg/mL
Aeromonas hydrophila
  dry cell weight: about 8 g/L

## CCCCCCCCCCCCCC(=O)O [myristic acid]
[2]
  PHA productivity: ≤ 1 g/L
